Assay results from patent publication US9598386B2, “Immunomodulatory compounds” (University of Strathclyde, priority 2012, dated 2017).
Where a name gives a salt, the structure may show the parent alone.

Columns and labels:
[1] = system: DBA/1 mice undergoing CIA; experiment: Collagen-induced arthritis (CIA) mouse model of rheumatoid arthritis; type: in vivo; settings: prophylactic treatment, 1 μg/dose at d-2, d0 and d21, versus PBS; FIG. 1
Method: DBA/1 mice undergoing CIA (PBS) were treated with SMAs S3 (1 μg/dose; S3-1) and S5 (1 μg/dose; S5-1) at d-2, d0 and d21 and monitored every second day for (A) articular score; (B) paw swelling; (C) incidence of CIA (articular score>2) and (D) incidence of severe pathology (articular score >4). Data in A & B are presented as mean values±SEM where PBS, n=28, S3, n=14 and S5, n=13 individual mice, except at d33 and d35 where PBS, n=14, S3, n=7 and S5, n=7 individual mice, and analysis was by Mann-Whitney test and *p<0.05, **p<0.01 and ***p<0.001 where blue * and black * represent PBS versus S3-1 and S5-1, respectively.

[2] = system: Peritoneal-derived mast cells (PDMC); experiment: Mast cell degranulation after FcεRI crosslinking; type: cell-based; settings: pre-treated during IgE sensitisation, measured 1 h after FcεRI crosslinking; FIG. 2
Method: (§1) Peritoneal-derived mast cells (PDMC; panels A & D) or bone marrow-derived mast cells (BMM; B, C, E & F) were pre-treated with the indicated concentrations of S3 and S5 (μg/ml) during the IgE sensitisation phase and then degranulation measured 1 h (A & D) following crosslinking of the IgE-bound FcεRI receptors (XL) or not (Basal). Alternatively TNFα (B & E) or IL-6 (C & F) release was measured 24 h following FcεRI crosslinking. Data are presented as means±SD where n=3 and analysis is by 1-way ANOVA and Newman-Keuls post test where ***p<0.001.
(§2) S3 and S5 were also tested for their effects on another immune system cell type, the mast cell. Similar to macrophages, activation of mast cells for example via the high-affinity receptor for IgE results in degranulation, resulting in release of inflammatory mediators, and secretion of various cytokines.

[3] = system: bone marrow-derived mast cells (BMM); experiment: Mast cell cytokine release after FcεRI crosslinking; type: cell-based; settings: pre-treated during IgE sensitisation, 24 h after FcεRI crosslinking; FIG. 2
Method: as §1, §2

[4] = system: mouse model of asthma, ovalbumin-induced airway hypersensitivity; experiment: Ovalbumin-induced airway hypersensitivity (OAH) mouse model of asthma; type: in vivo; settings: for lung pathology (H & E staining of lung tissue) / eosinophil influx into the lungs (BALF): prophylactic treatment; for lung pathology (H & E staining of lung tissue): FIG. 3A; for eosinophil influx into the lungs (BALF): FIG. 3B; for neutrophil influx into the lungs (BALF): therapeutic treatment, FIG. 3C
Method: As a consequence of the mast cell findings S3 and […] were tested in a mouse model of asthma, ovalbumin-induced airway hypersensitivity (OAH). As can be shown in FIG. 3, both sulfones are able to inhibit infiltration of disease-causing eosinophils into the lungs and also overall lung pathology.

| Compound | melting point [°C] | further results |
| --- | --- | --- |
| C[N+](C)(C)CCS(=O)(=O)Cc1ccc(Br)cc1 (as salt: methane sulfonate) [S1, N,N.N-trimethyl-2-1(4-bromobenzyl)sulfonyl{ethanaminiummethane sulfonate] | 187 to 188 | – |
| CN(C)CCS(=O)(=O)Cc1ccc(Br)cc1 [S3, N-{2-[(4-Bromobenzyl)sulfonyl]ethyl}-N,N-dimethylamine] | 58 to 60 | development of arthritis (articular score, paw swelling, incidence) [1]: significantly suppressed the development of arthritis; mast cell degranulation [2]: suppressing degranulation; secretion of IL-6 by mast cells [3]: inhibiting secretion; secretion of TNF-α by mast cells [3]: inhibiting secretion; lung pathology (H & E staining of lung tissue) [4]: inhibits lung pathology; eosinophil influx into the lungs (BALF) [4]: inhibits; neutrophil influx into the lungs (BALF) [4]: inhibits neutrophil influx |
| Cc1ccc(CS(=O)(=O)CCN(C)C)cc1 [S4, N,N-Di methyl-2-[(4-methylbenzyl)sulfonyl]ethanamine] | 68 to 70 | – |
| Cc1ccc(CS(=O)(=O)CC[N+](C)(C)C)cc1.[I-] [S5, N,N,N-trimethyl-2-[(4-methylbenzyl)sulfonyl]ethanaminium iodide] | 212 to 214 | development of arthritis (articular score, paw swelling, incidence) [1]: significantly suppressed the development of arthritis; mast cell degranulation [2]: suppressing degranulation; secretion of IL-6 by mast cells [3]: inhibiting secretion; secretion of TNF-α by mast cells [3]: inhibiting secretion; lung pathology (H & E staining of lung tissue) [4]: inhibits lung pathology; eosinophil influx into the lungs (BALF) [4]: inhibits; neutrophil influx into the lungs (BALF) [4]: inhibits neutrophil influx |
| Cc1ccc(CS(=O)(=O)CCN2CCCC2)cc1 [S7, 1-(2-[(4-Methylbenzyl)sulfonyl]ethyl)pyrrolidine] | 84 to 86 | – |
| Cc1ccc(CS(=O)(=O)CC[N+]2(C)CCCC2)cc1.[I-] [S8, 1-Methyl-1-{2-[(4-methylbenzyl)sulfonyl]ethyl}pyrrolidinium iodide] | 214 to 216 | – |
| O=S(=O)(CCN1CCCC1)Cc1ccc(Br)cc1 [S9, 1-{2-[(4-bromobenzyl}sulfonyl]ethyl}pyrrolidine] | 90 to 92 | – |
| C[N+]1(CCS(=O)(=O)Cc2ccc(Br)cc2)CCCC1.[I-] [S10, 1-Methyl-1-{2-[(4-bromobenzyl)sulfonyllethyl]}pyrrolidinium iodide] | 196 to 198 | – |
| Cc1ccc(CS(=O)(=O)CCCN2CCOCC2)cc1 [S19, 4-{3-[(4-methylbenzyl)sulfonyl]propyl}morpholine] | 92 to 93 | – |
| Cc1ccc(CS(=O)(=O)CCCN2CCCC2)cc1 [S20, 1-{3-[(4-Methylbenzyl)sulfonyl]propyl}-pyrrolidine] | 84 to 86 | – |
| Cc1ccc(CS(=O)(=O)CCC[N+]2(C)CCOCC2)cc1.[I-] [S22, 4-methyl-4-{3-[(4-methylbenzyl)sulfonyl]propyl}morpholin-4-ium iodide] | 181 to 183 | – |
| O=S(=O)(CCN1CCOCC1)Cc1cccc(F)c1 [S25, 4-{2-[(3-Fluorobenzyl)sulfonyl]ethyl}morpholine] | 74 to 76 | – |
| O=S(=O)(CCN1CCCC1)Cc1cccc(F)c1 [S26, 1-{2-[(3-Fluorobenzyl)sulfonyl]ethyl}pyrrolidine] | 66 to 68 | – |
| CN(C)CCS(=O)(=O)Cc1ccc(F)cc1 [S27, N-{2-[(4-Fluorobenzyl)sulfonyl]ethyl}-N,N-dimethylamine] | 50 to 52 | – |
| O=S(=O)(CCN1CCOCC1)Cc1ccc(F)cc1 [S28, 4-{2-[(4-Fluorobenzyl)sulfonyl]ethyl}morpholine] | 72 to 74 | – |
| O=S(=O)(CCN1CCCC1)Cc1ccc(F)cc1 [S29, 1-{2-[(4-Fluorobenzyl)sulfonyl]ethyl}pyrrolidine] | 76 to 78 | – |
